Patent publication US20230085307A1, “PYRIDAZINONE COMPOUND AND HERBICIDE” (NISSAN CHEMICAL CORPORATION, priority 2019, published 2023)

Key:
barnyard grass [1] = assay: Test Example 3: herbicidal effect by foliage application, Wagner pot (Table 18, symbol H); assay type: in vivo, barnyard grass (Echinochloa crus-galli); conditions: amount of applied herbicide 320 g/ha
Procedure, shortened: (§1)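 Plants were sown in alluvial soil held under 0.1–0.5 cm standing water and grown 14 days in a greenhouse at 25–30 °C. An emulsifiable formulation, water-diluted to the set dose, was then sprayed onto the foliage, and effects were scored three weeks later using previously defined criteria.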

Chinese sprangletop = assay: Test Example 3: herbicidal effect by foliage application, Wagner pot (Table 18, symbol D); assay type: in vivo, chinese sprangletop (Leptochloa chinensis); conditions: amount of applied herbicide 320 g/ha
Procedure, shortened: as §1

rice flat sedge = assay: Test Example 3: herbicidal effect by foliage application, Wagner pot (Table 18, symbol E); assay type: in vivo, rice flat sedge (Cyperus iria); conditions: amount of applied herbicide 320 g/ha
Procedure, shortened: as §1

southern crabgrass [2] = assay: Test Example 4: herbicidal effect by soil treatment (Table 19, symbol F); assay type: in vivo, southern crabgrass (Digitaria ciliaris); conditions: amount of applied herbicide 320 g/ha
Procedure, shortened: (§2)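 Scoring uses the grading scale of an earlier test, three weeks post-application. Treatment consists of spraying a diluted emulsion formulation across the surface of sterilized diluvial soil in which seeds are buried near 1.5 cm deep; boxes are kept in a greenhouse between 25° C. and 30° C.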

green foxtail [3] = assay: Test Example 4: herbicidal effect by soil treatment (Table 19, symbol G); assay type: in vivo, green foxtail (Setaria viridis); conditions: amount of applied herbicide 320 g/ha
Procedure, shortened: as §2

barnyard grass [4] = assay: Test Example 4: herbicidal effect by soil treatment (Table 19, symbol H); assay type: in vivo, barnyard grass (Echinochloa crus-galli); conditions: amount of applied herbicide 320 g/ha
Procedure, shortened: as §2

wild oat [5] = assay: Test Example 4: herbicidal effect by soil treatment (Table 19, symbol I); assay type: in vivo, wild oat (Avena fatua); conditions: amount of applied herbicide 320 g/ha
Procedure, shortened: as §2

blackgrass [6] = assay: Test Example 4: herbicidal effect by soil treatment (Table 19, symbol J); assay type: in vivo, blackgrass (Alopecurus myosuroides); conditions: amount of applied herbicide 320 g/ha
Procedure, shortened: as §2

Italian ryegrass [7] = assay: Test Example 4: herbicidal effect by soil treatment (Table 19, symbol K); assay type: in vivo, Italian ryegrass (Lolium multiflorum); conditions: amount of applied herbicide 320 g/ha
Procedure, shortened: as §2

windgrass [8] = assay: Test Example 4: herbicidal effect by soil treatment (Table 19, symbol L); assay type: in vivo, windgrass (Apera spica-venti); conditions: amount of applied herbicide 320 g/ha
Procedure, shortened: as §2

velvetleaf [9] = assay: Test Example 4: herbicidal effect by soil treatment (Table 19, symbol M); assay type: in vivo, velvetleaf (Abutilon theophrasti); conditions: amount of applied herbicide 320 g/ha
Procedure, shortened: as §2

redroot pigweed [10] = assay: Test Example 4: herbicidal effect by soil treatment (Table 19, symbol N); assay type: in vivo, redroot pigweed (Amaranthus retroflexus); conditions: amount of applied herbicide 320 g/ha
Procedure, shortened: as §2

lambsquarters [11] = assay: Test Example 4: herbicidal effect by soil treatment (Table 19, symbol O); assay type: in vivo, lambsquarters (Chenopodium album); conditions: amount of applied herbicide 320 g/ha
Procedure, shortened: as §2

chickweed [12] = assay: Test Example 4: herbicidal effect by soil treatment (Table 19, symbol P); assay type: in vivo, common chickweed (Stellaria media); conditions: amount of applied herbicide 320 g/ha
Procedure, shortened: as §2

persian speedwell [13] = assay: Test Example 4: herbicidal effect by soil treatment (Table 19, symbol R); assay type: in vivo, Persian speedwell (Veronica persica); conditions: amount of applied herbicide 320 g/ha
Procedure, shortened: as §2

southern crabgrass [14] = assay: Test Example 5: herbicidal effect by foliage application, plastic box (Table 20, symbol F); assay type: in vivo, southern crabgrass (Digitaria ciliaris); conditions: foliage application, 320 g/ha, evaluated three weeks after application
Procedure, shortened: (§3)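 Post-emergence foliar test in sterilized diluvial soil. Compound applied as water-diluted emulsion at a predetermined rate to 14-day-old plants; evaluation at three weeks.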

green foxtail [15] = assay: Test Example 5: herbicidal effect by foliage application, plastic box (Table 20, symbol G); assay type: in vivo, green foxtail (Setaria viridis); conditions: foliage application, 320 g/ha, evaluated three weeks after application
Procedure, shortened: as §3

barnyard grass [16] = assay: Test Example 5: herbicidal effect by foliage application, plastic box (Table 20, symbol H); assay type: in vivo, barnyard grass (Echinochloa crus-galli); conditions: foliage application, 320 g/ha, evaluated three weeks after application
Procedure, shortened: as §3

wild oat [17] = assay: Test Example 5: herbicidal effect by foliage application, plastic box (Table 20, symbol I); assay type: in vivo, wild oat (Avena fatua); conditions: foliage application, 320 g/ha, evaluated three weeks after application
Procedure, shortened: as §3

blackgrass [18] = assay: Test Example 5: herbicidal effect by foliage application, plastic box (Table 20, symbol J); assay type: in vivo, blackgrass (Alopecurus myosuroides); conditions: foliage application, 320 g/ha, evaluated three weeks after application
Procedure, shortened: as §3

Italian ryegrass [19] = assay: Test Example 5: herbicidal effect by foliage application, plastic box (Table 20, symbol K); assay type: in vivo, Italian ryegrass (Lolium multiflorum); conditions: foliage application, 320 g/ha, evaluated three weeks after application
Procedure, shortened: as §3

windgrass [20] = assay: Test Example 5: herbicidal effect by foliage application, plastic box (Table 20, symbol L); assay type: in vivo, windgrass (Apera spica-venti); conditions: foliage application, 320 g/ha, evaluated three weeks after application
Procedure, shortened: as §3

velvetleaf [21] = assay: Test Example 5: herbicidal effect by foliage application, plastic box (Table 20, symbol M); assay type: in vivo, velvetleaf (Abutilon theophrasti); conditions: foliage application, 320 g/ha, evaluated three weeks after application
Procedure, shortened: as §3

redroot pigweed [22] = assay: Test Example 5: herbicidal effect by foliage application, plastic box (Table 20, symbol N); assay type: in vivo, redroot pigweed (Amaranthus retroflexus); conditions: foliage application, 320 g/ha, evaluated three weeks after application
Procedure, shortened: as §3

lambsquarters [23] = assay: Test Example 5: herbicidal effect by foliage application, plastic box (Table 20, symbol O); assay type: in vivo, lambsquarters (Chenopodium album); conditions: foliage application, 320 g/ha, evaluated three weeks after application
Procedure, shortened: as §3

chickweed [24] = assay: Test Example 5: herbicidal effect by foliage application, plastic box (Table 20, symbol P); assay type: in vivo, common chickweed (Stellaria media); conditions: foliage application, 320 g/ha, evaluated three weeks after application
Procedure, shortened: as §3

false cleavers = assay: Test Example 5: herbicidal effect by foliage application, plastic box (Table 20, symbol Q); assay type: in vivo, false cleavers (Galium spurium); conditions: foliage application, 320 g/ha, evaluated three weeks after application
Procedure, shortened: as §3

persian speedwell [25] = assay: Test Example 5: herbicidal effect by foliage application, plastic box (Table 20, symbol R); assay type: in vivo, Persian speedwell (Veronica persica); conditions: foliage application, 320 g/ha, evaluated three weeks after application
Procedure, shortened: as §3

Row | Structure (SMILES) | herbicidal effect on H: barnyard grass (barnyard grass [1]) | herbicidal effect on D: Chinese sprangletop (Chinese sprangletop) | herbicidal effect on E: rice flat sedge (rice flat sedge) | F: southern crabgrass, herbicidal effect rating (southern crabgrass [2]) | G: green foxtail, herbicidal effect rating (green foxtail [3]) | H: barnyard grass, herbicidal effect rating (barnyard grass [4]) | I: wild oat, herbicidal effect rating (wild oat [5]) | J: blackgrass, herbicidal effect rating (blackgrass [6]) | K: Italian ryegrass, herbicidal effect rating (Italian ryegrass [7]) | L: windgrass, herbicidal effect rating (windgrass [8]) | M: velvetleaf, herbicidal effect rating (velvetleaf [9]) | N: redroot pigweed, herbicidal effect rating (redroot pigweed [10]) | O: lambsquarters, herbicidal effect rating (lambsquarters [11]) | P: chickweed, herbicidal effect rating (chickweed [12]) | R: persian speedwell, herbicidal effect rating (persian speedwell [13]) | other results
1 | COc1ccc(-c2sc3ccc(Cl)cc3c2-c2c(O)c(C)nn(C)c2=O)cc1OC [2-123] | 3 (Herbicidal rate of 40% or more and less than 70%) | 0 (Herbicidal rate of 5% or less (almost no effect)) | 5 (Herbicidal rate of 90% or more (almost completely withered)) | 0 (Herbicidal rate of 5% or less (almost no effect)) | 0 (Herbicidal rate of 5% or less (almost no effect)) | 0 (Herbicidal rate of 5% or less (almost no effect)) | 0 (Herbicidal rate of 5% or less (almost no effect)) | 0 (Herbicidal rate of 5% or less (almost no effect)) | 0 (Herbicidal rate of 5% or less (almost no effect)) | 0 (Herbicidal rate of 5% or less (almost no effect)) | 0 (Herbicidal rate of 5% or less (almost no effect)) | 0 (Herbicidal rate of 5% or less (almost no effect)) | 4 (Herbicidal rate of 70% or more and less than 90%) | 3 (Herbicidal rate of 40% or more and less than 70%) | 4 (Herbicidal rate of 70% or more and less than 90%) | herbicidal effect on F: southern crabgrass (southern crabgrass [14]): 0 (Herbicidal rate of 5% or less (almost no effect)); herbicidal effect on G: green foxtail (green foxtail [15]): 0 (Herbicidal rate of 5% or less (almost no effect)); herbicidal effect on H: barnyard grass (barnyard grass [16]): 0 (Herbicidal rate of 5% or less (almost no effect)); herbicidal effect on I: wild oat (wild oat [17]): 0 (Herbicidal rate of 5% or less (almost no effect)); herbicidal effect on J: blackgrass (blackgrass [18]): 4 (Herbicidal rate of 70% or more and less than 90%); herbicidal effect on K: Italian ryegrass (Italian ryegrass [19]): 2 (Herbicidal rate of 20% or more and less than 40%); herbicidal effect on L: windgrass (windgrass [20]): 1 (Herbicidal rate of 5% or more and less than 20%); herbicidal effect on M: velvetleaf (velvetleaf [21]): 3 (Herbicidal rate of 40% or more and less than 70%); herbicidal effect on N: redroot pigweed (redroot pigweed [22]): 0 (Herbicidal rate of 5% or less (almost no effect)); herbicidal effect on O: lambsquarters (lambsquarters [23]): 2 (Herbicidal rate of 20% or more and less than 40%); herbicidal effect on P: chickweed (chickweed [24]): 5 (Herbicidal rate of 90% or more (almost completely withered)); herbicidal effect on Q: false cleavers (false cleavers): 1 (Herbicidal rate of 5% or more and less than 20%); herbicidal effect on R: persian speedwell (persian speedwell [25]): 5 (Herbicidal rate of 90% or more (almost completely withered))
2 | CCCOc1cccc(-c2sc3ccc(F)cc3c2-c2c(OC(=O)CCC)c(C)nn(C)c2=O)c1 [2-214] | 3 (Herbicidal rate of 40% or more and less than 70%) | 3 (Herbicidal rate of 40% or more and less than 70%) | 4 (Herbicidal rate of 70% or more and less than 90%) | 4 (Herbicidal rate of 70% or more and less than 90%) | 4 (Herbicidal rate of 70% or more and less than 90%) | 3 (Herbicidal rate of 40% or more and less than 70%) | 0 (Herbicidal rate of 5% or less (almost no effect)) | 0 (Herbicidal rate of 5% or less (almost no effect)) | 0 (Herbicidal rate of 5% or less (almost no effect)) | 0 (Herbicidal rate of 5% or less (almost no effect)) | 3 (Herbicidal rate of 40% or more and less than 70%) | 5 (Herbicidal rate of 90% or more (almost completely withered)) | 2 (Herbicidal rate of 20% or more and less than 40%) | 3 (Herbicidal rate of 40% or more and less than 70%) | 5 (Herbicidal rate of 90% or more (almost completely withered)) | herbicidal effect on F: southern crabgrass (criteria 0-5) (southern crabgrass [14]): 4 (Herbicidal rate of 70% or more and less than 90%); herbicidal effect on G: green foxtail (criteria 0-5) (green foxtail [15]): 4 (Herbicidal rate of 70% or more and less than 90%); herbicidal effect on H: barnyard grass (criteria 0-5) (barnyard grass [16]): 1 (Herbicidal rate of 5% or more and less than 20%); herbicidal effect on I: wild oat (criteria 0-5) (wild oat [17]): 0 (Herbicidal rate of 5% or less (almost no effect)); herbicidal effect on J: blackgrass (criteria 0-5) (blackgrass [18]): 0 (Herbicidal rate of 5% or less (almost no effect)); herbicidal effect on K: Italian ryegrass (criteria 0-5) (Italian ryegrass [19]): 1 (Herbicidal rate of 5% or more and less than 20%); herbicidal effect on L: windgrass (criteria 0-5) (windgrass [20]): 0 (Herbicidal rate of 5% or less (almost no effect)); herbicidal effect on M: velvetleaf (criteria 0-5) (velvetleaf [21]): 3 (Herbicidal rate of 40% or more and less than 70%); herbicidal effect on N: redroot pigweed (criteria 0-5) (redroot pigweed [22]): 4 (Herbicidal rate of 70% or more and less than 90%); herbicidal effect on O: lambsquarters (criteria 0-5) (lambsquarters [23]): 2 (Herbicidal rate of 20% or more and less than 40%); herbicidal effect on P: chickweed (criteria 0-5) (chickweed [24]): 5 (Herbicidal rate of 90% or more (almost completely withered)); herbicidal effect on Q: false cleavers (criteria 0-5) (false cleavers): 2 (Herbicidal rate of 20% or more and less than 40%); herbicidal effect on R: persian speedwell (criteria 0-5) (persian speedwell [25]): 5 (Herbicidal rate of 90% or more (almost completely withered))
